This test concerns the target Multidrug resistance protein 1a (Rattus norvegicus) (UniProt Q6PSM0). Kind of test: TP_TRANSPORTER: uptake, inhibited by C219 antibody in bile canalicular membrane vesicles from SD rat. The test is classed as functional, cell membranes. The note with it: Sprague-Dawley, Bile canalicular membrane vesicle.

Chain of Multidrug resistance protein 1a (Rattus norvegicus) (Q6PSM0 as listed by the source): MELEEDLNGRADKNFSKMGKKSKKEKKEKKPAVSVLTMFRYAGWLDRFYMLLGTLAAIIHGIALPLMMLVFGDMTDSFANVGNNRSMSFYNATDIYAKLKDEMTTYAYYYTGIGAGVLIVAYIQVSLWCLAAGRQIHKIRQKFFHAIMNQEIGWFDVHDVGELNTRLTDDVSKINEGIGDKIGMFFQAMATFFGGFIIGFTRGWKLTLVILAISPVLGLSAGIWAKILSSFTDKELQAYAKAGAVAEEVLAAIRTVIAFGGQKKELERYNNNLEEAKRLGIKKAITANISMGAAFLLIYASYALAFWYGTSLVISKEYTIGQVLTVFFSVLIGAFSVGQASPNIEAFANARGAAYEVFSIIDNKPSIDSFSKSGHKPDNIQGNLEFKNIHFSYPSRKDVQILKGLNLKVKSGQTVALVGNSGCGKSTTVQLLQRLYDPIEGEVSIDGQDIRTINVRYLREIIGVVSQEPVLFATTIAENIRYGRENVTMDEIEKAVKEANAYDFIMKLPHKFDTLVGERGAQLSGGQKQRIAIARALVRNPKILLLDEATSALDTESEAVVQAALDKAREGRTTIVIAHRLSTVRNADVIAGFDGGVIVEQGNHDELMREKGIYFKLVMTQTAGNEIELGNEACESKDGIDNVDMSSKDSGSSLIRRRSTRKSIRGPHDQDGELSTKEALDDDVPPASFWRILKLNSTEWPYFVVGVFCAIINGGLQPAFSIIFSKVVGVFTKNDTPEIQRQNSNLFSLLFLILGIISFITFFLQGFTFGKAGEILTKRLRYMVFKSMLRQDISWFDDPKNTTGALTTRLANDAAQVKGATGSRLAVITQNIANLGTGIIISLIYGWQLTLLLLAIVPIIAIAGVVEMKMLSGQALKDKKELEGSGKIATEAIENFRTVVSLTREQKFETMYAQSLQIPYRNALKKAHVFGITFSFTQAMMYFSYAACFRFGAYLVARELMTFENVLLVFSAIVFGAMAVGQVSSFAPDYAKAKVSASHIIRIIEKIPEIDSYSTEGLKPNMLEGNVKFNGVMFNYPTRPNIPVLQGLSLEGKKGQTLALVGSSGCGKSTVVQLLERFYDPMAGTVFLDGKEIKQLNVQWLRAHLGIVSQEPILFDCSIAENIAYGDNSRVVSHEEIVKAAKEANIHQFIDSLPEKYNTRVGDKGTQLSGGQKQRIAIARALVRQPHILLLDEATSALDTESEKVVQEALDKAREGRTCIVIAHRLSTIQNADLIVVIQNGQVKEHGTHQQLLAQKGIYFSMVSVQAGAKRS

In the case of `C[C@]12CC[C@@H]3c4ccc(O)cc4CC[C@H]3[C@@H]1CC[C@@H]2O[C@@H]1O[C@H](C(=O)O)[C@@H](O)[C@H](O)[C@H]1O`, the Activity entry was “substrate [+]”.
